Experimental data as given in US7893074B2, “2, 4-pyrimidinediamines useful in the treatment of neoplastic diseases, inflammatory and immune system disorders” (Novartis AG, priority 2003, dated 2011).
Read-outs that look alike come from different tables or passages of the source.

Columns and labels:
T Cell = T Cell Migration; type: cell-based
[1] = test system: Mouse mammary carcinoma 4T1 cells; assay: Anchorage-independent tumor cell growth assay; type: cell-based
Method: Cells are cultured for 2 h and inhibitors are added at various concentrations in a final concentration of 0.1% DMSO. After 48 h, cell growth is assayed with the cell counting kit-8 (Wako Pure Chemical), which uses a water soluble tetrazolium salt WST8. Twenty μL of the reagent is added into each well and cells are further cultured for 2 h. The optical density is measured at 450 nm.

FAK = FAK (Mus musculus, UniProt P34152); assay: Phos IC50 (phosphorylation); type: cell-based
[2] = target: Focal Adhesion Kinase (FAK) (Homo sapiens, UniProt Q05397); assay: FAK assay system (Focal Adhesion Kinase inhibition); type: biochemical
IGF-IR = IGF-IR (Homo sapiens, UniProt P08069); assay: Cellular Capture ELISA of IGF-I induced autophosphorylation of the IGF-IR; type: cell-based; conditions: read-out: IGF-1R IC50
Method: In this assay the activity of the compounds of the invention against Insulin-like growth factor I (IGF-I) induced autophosphorylation of the IGF-IR is determined.

Chain of Focal Adhesion Kinase (FAK) (Q05397 384-706): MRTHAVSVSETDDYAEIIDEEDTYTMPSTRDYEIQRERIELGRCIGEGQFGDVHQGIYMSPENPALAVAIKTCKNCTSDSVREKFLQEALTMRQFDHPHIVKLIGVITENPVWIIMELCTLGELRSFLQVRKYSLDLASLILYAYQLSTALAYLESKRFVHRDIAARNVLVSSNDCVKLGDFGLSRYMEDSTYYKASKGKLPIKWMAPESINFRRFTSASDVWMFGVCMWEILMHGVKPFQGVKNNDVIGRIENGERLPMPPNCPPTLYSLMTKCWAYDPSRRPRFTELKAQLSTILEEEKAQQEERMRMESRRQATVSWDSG
Chain of IGF-IR (P08069 31-1367): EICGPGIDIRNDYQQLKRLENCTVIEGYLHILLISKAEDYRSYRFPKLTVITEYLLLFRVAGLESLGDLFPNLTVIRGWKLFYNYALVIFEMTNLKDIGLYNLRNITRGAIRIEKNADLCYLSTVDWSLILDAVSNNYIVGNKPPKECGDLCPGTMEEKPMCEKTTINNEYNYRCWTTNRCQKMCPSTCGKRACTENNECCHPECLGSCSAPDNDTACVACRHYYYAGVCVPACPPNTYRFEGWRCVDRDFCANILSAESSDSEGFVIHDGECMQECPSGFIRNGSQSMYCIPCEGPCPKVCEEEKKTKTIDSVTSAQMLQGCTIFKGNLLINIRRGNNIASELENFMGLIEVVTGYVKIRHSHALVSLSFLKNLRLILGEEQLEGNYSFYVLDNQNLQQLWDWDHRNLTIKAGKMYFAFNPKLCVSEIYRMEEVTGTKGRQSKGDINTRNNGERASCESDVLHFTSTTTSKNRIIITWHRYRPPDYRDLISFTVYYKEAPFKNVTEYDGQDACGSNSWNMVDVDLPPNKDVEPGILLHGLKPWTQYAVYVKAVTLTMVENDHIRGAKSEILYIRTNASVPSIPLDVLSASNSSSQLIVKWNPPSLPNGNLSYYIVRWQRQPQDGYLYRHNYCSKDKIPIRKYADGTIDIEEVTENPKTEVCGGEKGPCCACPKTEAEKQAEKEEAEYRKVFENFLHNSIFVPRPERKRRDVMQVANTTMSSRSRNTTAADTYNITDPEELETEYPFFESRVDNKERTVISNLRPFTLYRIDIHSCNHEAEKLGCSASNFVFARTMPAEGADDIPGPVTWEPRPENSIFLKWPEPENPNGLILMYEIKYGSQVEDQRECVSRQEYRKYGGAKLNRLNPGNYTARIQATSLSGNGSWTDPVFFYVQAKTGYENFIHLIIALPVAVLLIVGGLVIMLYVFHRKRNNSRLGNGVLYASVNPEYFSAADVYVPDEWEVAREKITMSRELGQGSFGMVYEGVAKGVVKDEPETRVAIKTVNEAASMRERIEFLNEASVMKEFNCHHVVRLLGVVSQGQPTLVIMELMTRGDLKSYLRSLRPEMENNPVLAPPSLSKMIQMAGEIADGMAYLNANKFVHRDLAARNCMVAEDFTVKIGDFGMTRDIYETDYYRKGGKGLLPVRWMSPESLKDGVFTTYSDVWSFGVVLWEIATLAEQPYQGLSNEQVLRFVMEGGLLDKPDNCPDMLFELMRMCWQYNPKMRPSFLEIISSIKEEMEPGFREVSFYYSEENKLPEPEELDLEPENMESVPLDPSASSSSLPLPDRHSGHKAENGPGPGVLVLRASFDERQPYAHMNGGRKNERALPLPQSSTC
Chain of FAK (P34152 2-1052): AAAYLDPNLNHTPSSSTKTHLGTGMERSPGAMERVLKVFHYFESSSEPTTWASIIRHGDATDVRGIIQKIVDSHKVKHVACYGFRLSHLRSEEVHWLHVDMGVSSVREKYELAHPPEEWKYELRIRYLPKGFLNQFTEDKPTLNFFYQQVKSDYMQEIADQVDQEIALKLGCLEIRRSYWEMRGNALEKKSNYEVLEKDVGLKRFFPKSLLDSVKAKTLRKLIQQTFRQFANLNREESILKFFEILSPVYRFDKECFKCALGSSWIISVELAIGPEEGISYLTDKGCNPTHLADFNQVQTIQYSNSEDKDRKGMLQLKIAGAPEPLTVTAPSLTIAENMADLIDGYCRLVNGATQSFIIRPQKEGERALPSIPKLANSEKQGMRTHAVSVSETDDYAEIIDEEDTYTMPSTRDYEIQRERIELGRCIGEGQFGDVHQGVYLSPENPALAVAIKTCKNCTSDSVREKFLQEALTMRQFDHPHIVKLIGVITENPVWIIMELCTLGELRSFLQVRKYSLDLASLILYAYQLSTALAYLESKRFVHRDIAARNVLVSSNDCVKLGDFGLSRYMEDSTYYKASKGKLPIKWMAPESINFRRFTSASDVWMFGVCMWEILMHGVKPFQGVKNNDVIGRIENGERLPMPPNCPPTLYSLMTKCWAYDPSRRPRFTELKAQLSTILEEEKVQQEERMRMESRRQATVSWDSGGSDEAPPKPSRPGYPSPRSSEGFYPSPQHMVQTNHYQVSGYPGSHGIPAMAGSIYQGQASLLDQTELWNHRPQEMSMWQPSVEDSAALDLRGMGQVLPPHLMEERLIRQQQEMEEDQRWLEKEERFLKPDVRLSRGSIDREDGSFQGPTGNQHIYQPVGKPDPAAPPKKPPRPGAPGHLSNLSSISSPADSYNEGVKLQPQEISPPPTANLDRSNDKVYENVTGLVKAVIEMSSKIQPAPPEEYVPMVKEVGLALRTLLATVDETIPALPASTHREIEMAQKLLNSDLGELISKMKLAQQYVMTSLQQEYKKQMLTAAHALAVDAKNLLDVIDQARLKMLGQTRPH

| IC50 (T Cell; T-cell) [nM] | IC50 ([1]; Mus musculus, 4T1) [nM] | IC50 (FAK) [nM] | IC50 ([2]; read-out: FAK IC50) [nM] | IC50 (IGF-IR) [nM] | IC50 [1] [nM] | IC50 (T Cell) [nM] | SMILES | IC50 ([2]; FAK IC50) [nM] |
| --- | --- | --- | --- | --- | --- | --- | --- | --- |
|  | 150 | 90 | 6.6 | 260 |  |  | COc1cc(N2CCOCC2)ccc1Nc1ncc(Cl)c(Nc2ccccc2S(=O)(=O)NCC(C)C)n1 [Example 22-3] |  |
|  | 400 | 200 | 1.5 | 800 |  |  | CCC(CC)NS(=O)(=O)c1ccccc1Nc1nc(Nc2ccc(N3CCN(C)CC3)cc2OC)ncc1Cl [Example 23-2] |  |
|  | 1120 | 1000 | 1.7 | 820 |  |  | CCC(CC)NS(=O)(=O)c1ccccc1Nc1nc(Nc2ccc(N3CCC(NC)C3)cc2OC)ncc1Cl (centres unmarked) [Example 23-3] |  |
|  | 1070 | 900 | 1.2 | 600 |  |  | CCNC1CCN(c2ccc(Nc3ncc(Cl)c(Nc4ccccc4S(=O)(=O)NC(CC)CC)n3)c(OC)c2)C1 (centres unmarked) [Example 23-4] |  |
|  | 440 | 110 | 3.6 | 50 |  |  | COc1cc(N2CCOCC2)ccc1Nc1ncc(Cl)c(Nc2ccccc2S(=O)(=O)NC2CCC2)n1 [Example 24-1] |  |
|  | 110 | 500 | 2.1 | 390 |  |  | COc1cc(OC2CCN(C)CC2)ccc1Nc1ncc(Cl)c(Nc2ccccc2S(=O)(=O)NC2CCC2)n1 [Example 24-2] |  |
|  | 130 | 400 | 3 | 640 |  |  | COc1cc(OC2CCN(C)CC2)ccc1Nc1ncc(Cl)c(Nc2ccccc2S(=O)(=O)NC2CCCC2)n1 [Example 25-2] |  |
|  | 350 | 50 | 4.4 | 290 |  |  | CCCS(=O)(=O)c1ccccc1Nc1nc(Nc2ccc(N3CCOCC3)cc2OC)ncc1Cl [Example 26-1] |  |
|  | 80 | 1200 | 6.9 | 70 |  |  | CCCS(=O)(=O)c1ccccc1Nc1nc(Nc2cc(N3CCN(C(C)=O)CC3)ccc2OC)ncc1Cl [Example 26-15] |  |
|  | 90 | 300 | 1.4 | 180 |  |  | CCCS(=O)(=O)c1ccccc1Nc1nc(Nc2ccc(N3CCN(C(C)C)CC3)cc2OC)ncc1Cl [Example 26-23] |  |
|  | 70 | 200 | 1.9 | 340 |  |  | CCCS(=O)(=O)c1ccccc1Nc1nc(Nc2ccc(OC3CCN(C)CC3)cc2OC)ncc1Cl [Example 26-26] |  |
|  | 460 | 300 | 12 | 300 |  |  | COc1cc(N2CCCC(C(N)=O)C2)ccc1Nc1ncc(Cl)c(Nc2ccccc2S(=O)(=O)C(C)C)n1 (centres unmarked) [Example 28-1] |  |
|  | 440 | 80 | 1.9 | 3710 |  |  | COc1cc(N2CCN(CCO)CC2)ccc1Nc1ncc(Cl)c(Nc2ccccc2S(=O)(=O)C(C)C)n1 [Example 28-2] |  |
|  | 90 | 200 | 2.9 | 2570 |  |  | COc1cc(N2CCN(C3CCN(C)CC3)CC2)ccc1Nc1ncc(Cl)c(Nc2ccccc2S(=O)(=O)C(C)C)n1 [Example 28-24] |  |
|  | 2200 | 700 | 13 | 90 |  |  | CCC(CC)S(=O)(=O)c1ccccc1Nc1nc(Nc2ccc(N3CCOCC3)cc2OC)ncc1Cl [Example 29-1] |  |
|  | 370 | 50 | 5.9 | 120 |  |  | COc1cc(N2CCOCC2)ccc1Nc1ncc(Cl)c(Nc2ccccc2S(=O)(=O)CC(C)C)n1 [Example 32-2] |  |
|  | 250 | 60 | 5.2 | 100 |  |  | COc1cc(N2CCOCC2)ccc1Nc1ncc(Cl)c(Nc2ccccc2S(=O)(=O)C2CCCC2)n1 [Example 33-2] |  |
|  | 370 | 100 | 8 | 280 |  |  | CCCCS(=O)(=O)c1ccccc1Nc1nc(Nc2ccc(N3CCOCC3)cc2OC)ncc1Cl [Example 34-1] |  |

The remaining lines, values behind:

| SMILES | IC50 (T Cell; T-cell) [nM] | IC50 ([1]; Mus musculus, 4T1) [nM] | IC50 (FAK) [nM] | IC50 ([2]; read-out: FAK IC50) [nM] | IC50 (IGF-IR) [nM] | IC50 [1] [nM] | IC50 (T Cell) [nM] | IC50 ([2]; FAK IC50) [nM] |
| --- | --- | --- | --- | --- | --- | --- | --- | --- |
| CNS(=O)(=O)c1ccccc1Nc1nc(Nc2cc(N3CCN(C(C)=O)CC3)ccc2OC)ncc1Br [Example 3-34] | 130 | 240 | 100 |  |  |  |  |  |
| CNS(=O)(=O)c1ccccc1Nc1nc(Nc2ccc(N3CCN(C(C)=O)CC3)cc2OC)ncc1Br [Example 3-46] | 300 | 180 | 100 | 4 |  |  |  |  |
| CNS(=O)(=O)c1ccccc1Nc1nc(Nc2cc(N(C)C)ccc2OC)ncc1Br [Example 3-64] | 210 | 700 | 130 | 5 |  |  |  |  |
| CNS(=O)(=O)c1ccccc1Nc1nc(Nc2ccc(N3CCCC(C(N)=O)C3)cc2OC)ncc1Br (centres unmarked) [Example 3-68] | 1000 | 630 |  |  |  |  |  | 5.5 |
| CNS(=O)(=O)c1ccccc1Nc1nc(Nc2cc(N3CCC(N4CCCCC4)CC3)ccc2OC)ncc1Br [Example 3-69] | 580 | 110 | 200 | 4 |  |  |  |  |
| CNS(=O)(=O)c1ccccc1Nc1nc(Nc2cc(OC3CCN(C)CC3)ccc2OC)ncc1Br [Example 3-76] | 700 | 1300 | 290 | 15 |  |  |  |  |
| CNC(=O)c1ccccc1Nc1nc(Nc2cc(N3CCOCC3)ccc2OC)ncc1Cl [Example 7-6] | 250 | 1090 | 800 | 17 |  |  |  |  |
| CNC(=O)c1ccccc1Nc1nc(Nc2cc(N3CCN(C(C)=O)CC3)ccc2OC)ncc1Cl [Example 7-30] | 1000 | 300 |  | 2.1 |  |  |  |  |
| CNC(=O)c1ccccc1Nc1nc(Nc2ccc(N3CCOCC3)cc2OC)ncc1Cl [Example 7A, 2-[5-Chloro-2-(2-methoxy-4-morpholin-4-yl-phenylamino)-pyrimidin-4-ylamino]-N-methyl-benzamide] | 40 | 470 | 210 |  |  |  |  |  |
| CNC(=O)c1ccccc1Nc1nc(Nc2cc(F)ccc2OC)ncc1Br [Example 8-3] |  | 1000 | 220 | 13 | > 10000 |  |  |  |
| CCNC(=O)c1ccccc1Nc1nc(Nc2ccc(N3CCOCC3)cc2OC)ncc1Cl [Example 9-1] | 600 | 1000 | 360 | 22 |  |  |  |  |
| CCNC(=O)c1ccccc1Nc1nc(Nc2ccc(N3CCOCC3)cc2OC)ncc1Cl [Example 9-5] |  |  | 360 | 22 | 600 | 1600 |  |  |
| COc1cc(N2CCC(N3CCN(C)CC3)CC2)ccc1Nc1ncc(Cl)c(Nc2ccccc2S(=O)(=O)NC(C)C)n1 [Example 19-4] |  | 340 | 200 | 1.6 | 140 |  |  |  |
| COc1cc(NCC(C)(C)CN(C)C)ccc1Nc1ncc(Cl)c(Nc2ccccc2S(=O)(=O)NC(C)C)n1 [Example 19-10] |  | 560 | 60 | 1.3 | 1020 |  |  |  |
| CNC1CCN(c2ccc(Nc3ncc(Cl)c(Nc4ccccc4S(=O)(=O)NC(C)C)n3)c(OC)c2F)C1 (centres unmarked) [Example 19-12] |  | 700 | > 10000 | 9 | 630 |  |  |  |
| COc1cc(OC2CCN(C)C2)ccc1Nc1ncc(Cl)c(Nc2ccccc2S(=O)(=O)NC(C)C)n1 (centres unmarked) [Example 19-20] |  | 70 | 30 | 1.6 | 230 |  |  |  |
| CC(C)NS(=O)(=O)c1ccccc1Nc1nc(Nc2ccc(N3CCOCC3)cc2F)ncc1Cl [Example 19-25] |  | 490 | 1000 | 7.2 | 240 |  |  |  |
| CNS(=O)(=O)c1ccccc1Nc1nc(Nc2ccccc2OC(F)(F)F)ncc1Cl [Example 20-3] |  | 2500 | 400 | 42 | 2780 |  |  |  |
| CNS(=O)(=O)c1ccccc1Nc1nc(Nc2ccc(N3CCNCC3)cc2OC)ncc1Cl [Example 20-7] |  | 50 | 100 | 3 | 380 |  |  |  |
| CNS(=O)(=O)c1ccccc1Nc1nc(Nc2ccc(N3CCC(N4CCCCC4)CC3)cc2OC)ncc1Cl [Example 20-8] |  |  |  |  |  | 50 | 290 |  |
| CNS(=O)(=O)c1ccccc1Nc1nc(Nc2ccc(OC3CCN(C)CC3)cc2OC)ncc1Cl [Example 20-27] |  | 50 | 850 | 12 | 290 |  |  |  |
| CNS(=O)(=O)c1ccccc1Nc1nc(Nc2ccc(OC3CCN(C(C)C)C3)cc2OC)ncc1Cl (centres unmarked) [Example 20-28] |  | 80 | 170 | 9.2 | 420 |  |  |  |
| CCN1CCC(Oc2ccc(Nc3ncc(Cl)c(Nc4ccccc4S(=O)(=O)NC)n3)c(OC)c2)C1 (centres unmarked) [Example 20-30] |  | 80 | 300 | 7.6 | 670 |  |  |  |
| CNS(=O)(=O)c1ccccc1Nc1nc(Nc2cc(OC)c(OC)cc2C)ncc1Cl [Example 20-35] |  | 90 | 90 | 8.7 | 150 |  |  |  |
| COc1cc(N2CCOCC2)ccc1Nc1ncc(Br)c(Nc2ccccc2S(=O)(=O)N(C)C)n1 [Example 51, 2-[5-bromo-2-(2-methoxy-4-morpholin-4-yl-phenylamino)-pyrimidin-7-ylamino]-N,N-dimethyl-benznensulfonamide] |  | 190 | 13 | 8.1 | 200 |  |  |  |
| CNS(=O)(=O)c1cc(F)ccc1Nc1nc(Nc2ccc(N3CCOCC3)cc2OC)ncc1Br [Example 52, 2-[5-Bromo-2-(2-methoxy-4-morpholin-4-yl-phenylamino)-pyrimidin-4-ylamino]-5-fluoro-N-methyl-benzenesulfonamide] |  | 410 | 200 | 13 | < 80 |  |  |  |
